Results published in US7531557B2, “Diaryl ethers as opioid receptor antagonists” (Eli Lilly and Company, priority 2002, dated 2009).

Tests used:
Diet Induced Obese Rat = test: Indirect calorimetry assay (food consumption, energy balance); assay type: in vivo; details: for Energy Balance Diet Induced Obese Rat: test dose 3 mg/kg, energy balance = caloric intake minus utilization
Description: Indirect Calorimetry Assay
Twenty-four-hour energy expenditure (EE) and respiratory quotient (RQ) were measured by indirect calorimetry using an open circuit calorimetry system (Oxymax, Columbus Instruments Int. Corp., USA). RQ is the ratio of the volume of CO2 produced (VCO2) to the volume of O2 consumed (VO2). EE was calculated as the product of calorific value of oxygen (CV) and VO2 per kilogram of body weight, where CV=3.815+1.232 (RQ). Total calories expended were calculated to determine daily fuel utilization. To calculate the proportion of protein, fat and carbohydrate that is used during that 24-hour period, we used Flatt's proposal (see, Flatt J P 1991 Assessment of daily and cumulative carbohydrate and fat balances in mice. J Nutr Biochem 2:193-202.) and formulae as well as other derived constants (see Elia M, Livesey G 1992 Energy expenditure and fuel selection in biological systems: the theory and practice of calculations based on indirect calorimetry and tracer methods. World Rev Nutr Diet 70:68-131.). Food consumption over the 24-hour period was also measured. […] Results obtained for a sample of compounds of the invention with the indirect calorimetry assay are shown below in Table 4.

Rat = test: Acute feeding assay (Rat Obesity assay); assay type: in vivo
Description: Acute Feeding Assay (Rat Obesity Assay)
The efficacy of compounds of the present invention has been further verified by the results of a Rat Obesity assay shown in Table 3.

[1] = system: mu, delta and kappa receptors in rat striatum/nucleus accumbens; test: Ex-vivo receptor binding of 3H-diprenorphine in rat brain after oral dosing; details: 7 mg/kg p.o., 6 hours after administration, striatum/nucleus accumbens homogenate, versus vehicle
[2] = system: dietary induced obese rats; details: cited from earlier work
[3] = former clinical trial candidate, development discontinued; cited from earlier work

| Compound | Inhibition of Feeding Diet Induced Obese Rat Minimum Effective Dose (MED) (Diet Induced Obese Rat; p.o., lowest dose with food consumption over 24 hours significantly different from vehicle) [mg/kg] | Energy Balance Diet Induced Obese Rat (Diet Induced Obese Rat; p.o.) [kcal/kg/day] | Doses in ug/kg to achieve effective inhibition (Rat) [µg/kg] | Ex Vivo Binding [3H]-Diprenorphine % Inhibition of at 6 hours 7 mg/kg of test compound [1] [%] | minimal effective dose (Diet Induced Obese Rat; Rattus norvegicus, po, lowest dose with food consumption over 24 hours significantly different from vehicle, read-out: Inhibition of Feeding Diet Induced Obese Rat Minimum Effective Dose (MED)) [mg/kg] | energy balance and total body mass ([2]; chronic treatment, dietary induced obese rats fed a high fat diet) | food intake ([2]; oral administration, acute and chronic treatment in rats) | human oral bioavailability [3] |
| --- | --- | --- | --- | --- | --- | --- | --- | --- |
| 4-(4-Pentylaminomethyl-phenoxy)-benzamide [Example 290] | 3 | -65 | 3 |  |  |  |  |  |
| C[C@H]1CN(CC[C@H](O)C2CCCCC2)CC[C@@]1(C)c1cccc(O)c1 [LY255582, reference compound] |  | -36 |  | >40 | 1 | sustained negative energy balance leading to a decrease in total body mass | robust reductions in food intake | lack of satisfactory human oral bioavailability |
